Where two headings read alike, the source gives them in different places.
Assays:
[1] = tested on: Haematococcus pluvialis (Strain 2); experiment: % cell lysis and culture dry weight in flasks, salt treatment (Example 12); format: cell-based
Experimental: This test was done side by side in flasks (0.1 L) and in reactors located in a greenhouse operating in conditions: reactor volume of 230 L; Daily PAR of 20 mol m^−2 d^−1; pH (not measured); and paddlewheel speed of 21 RPM. […] The flask cultures were mixed by shaking at 140 rpm and received 300-400 μmol/m^2 s of photosynthetically active radiation (PAR) in 12 hour light cycles and constant supply of 2.5% CO2. The motility of the culture was monitored by visual observation under a microscope. […] Nine 230 L reactors were also seeded with culture from bioreactor #2410 on the same day as the flasks and brought to 2 ppt concentration of salt. Once motility of the cells was reduced to <10% (day 3 of culture for flasks and day 2 for 230 L reactors) the level of salt was elevated to a point between 4-18 ppt and compared to the culture in two reactors remaining at 2 ppt salt. Flasks and 230 L reactors were monitored for percentage of cell lysis via visual observation under a microscope, culture dry weight (biomass accumulation in g/L), and percentage of chytrid infection via visual observation under a microscope. Carotenoid production, a proxy for determining astaxanthin, was quantified every other day of culture in the 230 L reactors using the UV method.

[2] = tested on: Nitrogen fixing bacteria including Rhizobium, Emticicia, and Sinorhizobium; settings: after the hydrogen peroxide treatments in bioreactor #2320 (from 20-40%)
Excerpt: A series of Haematococcus pluvialis (Strain 1) cultures were compared using bacterial community sequencing (SSU rRNA 16s) to analyze the bacterial community of the cultures during a lysis event, a chytrid infection, and during treatment with hydrogen peroxide to determine if the bacteria community shifts or produces a detectable pattern.

[3] = tested on: chytrids; settings: for % Chytrids Infection: 0.0105 mL/L every 6 hours;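 for % Chytrid infection: flask cultures run as treated duplicates beside untreated duplicate controls, with dosing halted by day 5 once lysis topped 10% and recovery afterwards tracked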;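 for Chytrid infection: flask cultures run as treated duplicates beside untreated duplicate controls, with dosing halted by day 5 once lysis topped 10% and recovery afterwards tracked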
Excerpt: Three 3,000 L open raceway pond bioreactor #'s MP1, MP2, & MP3 with paddlewheel mixing disposed outdoors were inoculated with cultures of green swimmer Haematococcus pluvialis (Strain 2) cells from outdoor reactor #2310 at a dilution ratio of 1 part culture samples to 3 parts reddening media containing 1 ppt salt (NaCl). […] MP2 was not treated with hydrogen peroxide to serve as an untreated control for comparison purposes. […] After hydrogen peroxide treatments began, the percent of the cultures infected with chytrids, percent of carotenoids by UV method, and cell dry weight (g/L) were quantified daily.

[4] = tested on: chytrids;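 for % Chytrid infection: flask cultures run as treated duplicates beside untreated duplicate controls, with dosing halted by day 5 once lysis topped 10% and recovery afterwards tracked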;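 for Chytrid infection: flask cultures run as treated duplicates beside untreated duplicate controls, with dosing halted by day 5 once lysis topped 10% and recovery afterwards tracked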
Excerpt: Culture samples of Haematococcus pluvialis (Strain 2) were collected on day 5 of the culture from open raceway bioreactor #2420 operating in conditions: reactor volume of 170,000 L; Daily PAR not measured; pH of 7.3; and paddlewheel speed of 70%). Culture samples were distributed into flasks for culturing, consisting of duplicate untreated controls and duplicate treatments. […] Samples were taken from the flask cultures every few days in order to quantify % lysis, % chytrid infection, and cell dry weight for a duration of about 11 days.

[5] = tested on: Haematococcus pluvialis (Strain 2); experiment: % lysis and culture dry weight in flasks (Example 10);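 note: flask cultures run in duplicate, with duplicate untreated flasks serving as controls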
Excerpt: Culture samples of Haematococcus pluvialis (Strain 2) were collected on the second day of the culture from open raceway bioreactor #2430 operating in conditions: reactor volume of 170,000 L; Daily PAR not measured; pH of 7.3; and paddlewheel speed of 70. The culture samples were distributed into flasks for culturing, consisting of duplicate untreated controls and duplicate treatments. […] Samples were taken from the flask cultures daily to quantify % lysis and % chytrid infection and cell dry weight was quantified every other day for a duration of 11 days.

[6] = 0.0140 mL/L 1 time per day, day 0
[7] = 0.0140 mL/L 1 time per day, day 3
[8] = 0.0140 mL/L 1 time per day, day 4

[Cl-].[Na+] [NaCl, sodium chloride]
% Cell Lysis in Flasks ([1]; 2 ppt, 9 d): 0 ± 0% | % Cell Lysis in Flasks ([1]; 2 ppt, 11 d): 0 ± 0% | % Cell Lysis in Flasks ([1]; 4 ppt, 9 d): 0 ± 0% | % Cell Lysis in Flasks ([1]; 4 ppt, 11 d): 0 ± 0% | % Cell Lysis in Flasks ([1]; 5 ppt, 9 d): 0 ± 0% | % Cell Lysis in Flasks ([1]; 5 ppt, 11 d): 1 ± 1% | % Cell Lysis in Flasks ([1]; 6 ppt, 9 d): 4 ± 3% | % Cell Lysis in Flasks ([1]; 6 ppt, 11 d): 5 ± 4% | % Cell Lysis in Flasks ([1]; 7 ppt, 9 d): 0 ± 0% | % Cell Lysis in Flasks ([1]; 7 ppt, 11 d): 7 ± 3% | % Cell Lysis in Flasks ([1]; 8 ppt, 9 d): 3 ± 2% | % Cell Lysis in Flasks ([1]; 8 ppt, 11 d): 2 ± 0% | % Cell Lysis in Flasks ([1]; 9 ppt, 9 d): 0 ± 0% | % Cell Lysis in Flasks ([1]; 9 ppt, 11 d): 2 ± 0% | % Cell Lysis in Flasks ([1]; 10 ppt, 9 d): 1 ± 1% | % Cell Lysis in Flasks ([1]; 10 ppt, 11 d): 3 ± 1% | % Cell Lysis in Flasks ([1]; 11 ppt, 9 d): 0 ± 0% | % Cell Lysis in Flasks ([1]; 11 ppt, 11 d): 1 ± 1% | cell lysis ([1]; flasks, all treatments): below 10%

hydrogen peroxide [H2O2]
relative amount of nitrogen fixing bacteria in the dominant bacterial community [2]: less than 10% | % Chytrids Infection ([3]; MP1, initial infection 20%, day 7): 23.3 ± 5.8% | % Chytrids Infection ([3]; MP1, initial infection 20%, day 8): 20.0 ± 5.0% | % Chytrids Infection ([3]; MP1, initial infection 20%, day 9): 30.0 ± 10.0% | % Chytrids Infection ([3]; MP1, initial infection 20%, day 10): 26.7 ± 2.9% | % Chytrids Infection ([3]; MP1, initial infection 20%, day 11): 61.7 ± 24.7% | % Chytrids Infection ([3]; MP1, initial infection 20%, day 12): 63.3 ± 16.1% | % Chytrids Infection ([3]; MP1, initial infection 20%, day 13): 73.3 ± 7.6% | % Chytrids Infection ([3]; MP1, initial infection 20%, day 14): 76.7 ± 17.6% | % Chytrids Infection ([3]; MP3, initial infection less than 5%, day 7): 1.7 ± 2.9% | % Chytrids Infection ([3]; MP3, initial infection less than 5%, day 8): 0.0 ± 0.0% | % Chytrids Infection ([3]; MP3, initial infection less than 5%, day 9): 1.7 ± 2.9% | % Chytrids Infection ([3]; MP3, initial infection less than 5%, day 10): 0.0 ± 0.0% | % Chytrids Infection ([3]; MP3, initial infection less than 5%, day 11): 0.0 ± 0.0% | % Chytrids Infection ([3]; MP3, initial infection less than 5%, day 12): 0.0 ± 0.0% | % Chytrids Infection ([3]; MP3, initial infection less than 5%, day 13): 3.3 ± 2.9% | % Chytrids Infection ([3]; MP3, initial infection less than 5%, day 14): 0.0 ± 0.0% | chytrids infection level ([3]; MP3 culture, below 5% when the treatments started, 1 ppt salt): below 5% | % Chytrid infection ([4]; 0.0105 mL/L 3 times per day (discontinued day 5), day 6): 2.5 ± 1.2% | % Chytrid infection ([4]; 0.0105 mL/L 3 times per day (discontinued day 5), day 9): 7.5 ± 3.5% | % Chytrid infection ([4]; 0.0105 mL/L 3 times per day (discontinued day 5), day 11): 100.0 ± 0.0% | % Chytrid infection ([4]; 0.0105 mL/L 3 times per day, day 0): 0.0 ± 0.0% | % Chytrid infection ([4]; 0.0105 mL/L 3 times per day, day 3): 0.8 ± 1.2% | % Chytrid infection ([4]; 0.0105 mL/L 3 times per day, day 4): 2.5 ± 3.5% | % Chytrid infection ([4]; 0.0105 mL/L 3 times per day, day 5): 1.7 ± 0.0% | % Chytrid infection ([4]; 0.0140 mL/L 1 time per day (discontinued day 5), day 6): 2.5 ± 1.2% | % Chytrid infection ([4]; 0.0140 mL/L 1 time per day (discontinued day 5), day 9): 0.0 ± 0.0% | % Chytrid infection ([4]; 0.0140 mL/L 1 time per day (discontinued day 5), day 11): 35.8 ± 29.5% | % Chytrid infection [4, 6]: 0.0 ± 0.0% | % Chytrid infection [4, 7]: 0.0 ± 0.0% | % Chytrid infection [4, 8]: 0.0 ± 0.0% | % Chytrid infection ([4]; 0.0140 mL/L 2 times per day (discontinued day 5), day 6): 5.8 ± 3.5% | % Chytrid infection ([4]; 0.0140 mL/L 2 times per day (discontinued day 5), day 9): 43.3 ± 4.7% | % Chytrid infection ([4]; 0.0140 mL/L 2 times per day (discontinued day 5), day 11): 97.5 ± 3.5% | % Chytrid infection ([4]; 0.0140 mL/L 2 times per day, day 0): 0.0 ± 0.0% | % Chytrid infection ([4]; 0.0140 mL/L 2 times per day, day 3): 2.5 ± 1.2% | % Chytrid infection ([4]; 0.0140 mL/L 2 times per day, day 4): 2.5 ± 3.5% | % Chytrid infection ([4]; 0.0140 mL/L 2 times per day, day 5): 5.0 ± 4.7% | % Chytrid infection ([4]; 0.0140 mL/L 3 times per day (discontinued day 5), day 6): 0.0 ± 0.0% | % Chytrid infection ([4]; 0.0140 mL/L 3 times per day (discontinued day 5), day 9): 0.0 ± 0.0% | % Chytrid infection ([4]; 0.0140 mL/L 3 times per day (discontinued day 5), day 11): 11.7 ± 16.5% | % Chytrid infection ([4]; 0.0140 mL/L 3 times per day, day 0): 0.0 ± 0.0% | % Chytrid infection ([4]; 0.0140 mL/L 3 times per day, day 3): 3.3 ± 4.7% | % Chytrid infection ([4]; 0.0140 mL/L 3 times per day, day 4): 0.0 ± 0.0% | % Chytrid infection ([4]; 0.0140 mL/L 3 times per day, day 5): 0.0 ± 0.0% | % Chytrid infection ([4]; 0.0175 mL/L 1 time per day (discontinued day 5), day 6): 0.0 ± 0.0% | % Chytrid infection ([4]; 0.0175 mL/L 1 time per day (discontinued day 5), day 9): 0.0 ± 0.0% | % Chytrid infection ([4]; 0.0175 mL/L 1 time per day (discontinued day 5), day 11): 34.2 ± 27.1% | % Chytrid infection ([4]; 0.0175 mL/L 1 time per day, day 0): 0.0 ± 0.0% | % Chytrid infection ([4]; 0.0175 mL/L 1 time per day, day 3): 0.8 ± 1.2% | % Chytrid infection ([4]; 0.0175 mL/L 1 time per day, day 4): 1.7 ± 0.0% | % Chytrid infection ([4]; 0.0175 mL/L 1 time per day, day 5): 1.7 ± 0.0% | chytrid infection ([4]; all treated flasks, until 4-6 days after treatment ended): less than 10% | % Lysis ([5]; 0.0105 mL/L 1 time per day for 3 d then every other day, day 0): 0.8 ± 2.0% | % Lysis ([5]; 0.0105 mL/L 1 time per day for 3 d then every other day, day 3): 0.0 ± 0.0% | % Lysis ([5]; 0.0105 mL/L 1 time per day for 3 d then every other day, day 4): 1.7 ± 0.0% | % Lysis ([5]; 0.0105 mL/L 1 time per day for 3 d then every other day, day 5): 1.7 ± 2.4% | % Lysis ([5]; 0.0105 mL/L 1 time per day for 3 d then every other day, day 6): 3.3 ± 4.7% | % Lysis ([5]; 0.0105 mL/L 1 time per day for 3 d then every other day, day 7): 0.0 ± 0.0% | % Lysis ([5]; 0.0105 mL/L 1 time per day for 3 d then every other day, day 8): 0.8 ± 1.2% | % Lysis ([5]; 0.0105 mL/L 1 time per day for 3 d then every other day, day 9): 0.8 ± 1.2% | % Lysis ([5]; 0.0105 mL/L 1 time per day for 3 d then every other day, day 10): 0.8 ± 1.2% | % Lysis ([5]; 0.0105 mL/L 1 time per day, day 0): 0.8 ± 2.0% | % Lysis ([5]; 0.0105 mL/L 1 time per day, day 3): 0.0 ± 0.0% | % Lysis ([5]; 0.0105 mL/L 1 time per day, day 4): 1.7 ± 0.0% | % Lysis ([5]; 0.0105 mL/L 1 time per day, day 5): 1.7 ± 0.0% | % Lysis ([5]; 0.0105 mL/L 1 time per day, day 6): 0.8 ± 2.0% | % Lysis ([5]; 0.0105 mL/L 1 time per day, day 7): 0.0 ± 0.0% | % Lysis ([5]; 0.0105 mL/L 1 time per day, day 8): 1.7 ± 2.4% | % Lysis ([5]; 0.0105 mL/L 1 time per day, day 9): 7.5 ± 8.3% | % Lysis ([5]; 0.0105 mL/L 1 time per day, day 10): 0.0 ± 0.0% | percent lysis ([5]; 0.0105 mL/L, for 11 days): under 10% | % Lysis ([5]; 0.0140 mL/L 1 time per day for 3 d then every other day, day 0): 0.8 ± 2.0% | % Lysis ([5]; 0.0140 mL/L 1 time per day for 3 d then every other day, day 3): 4.2 ± 1.2% | % Lysis ([5]; 0.0140 mL/L 1 time per day for 3 d then every other day, day 4): 10.0 ± 8.7% | % Lysis ([5]; 0.0140 mL/L 1 time per day for 3 d then every other day, day 5): 15.8 ± 5.9% | % Lysis ([5]; 0.0140 mL/L 1 time per day for 3 d then every other day, day 6): 6.7 ± 0.0% | % Lysis ([5]; 0.0140 mL/L 1 time per day for 3 d then every other day, day 7): 13.3 ± 4.7% | % Lysis ([5]; 0.0140 mL/L 1 time per day for 3 d then every other day, day 8): 13.3 ± 2.4% | % Lysis ([5]; 0.0140 mL/L 1 time per day for 3 d then every other day, day 9): 5.0 ± 2.4% | % Lysis ([5]; 0.0140 mL/L 1 time per day for 3 d then every other day, day 10): 15.8 ± 12.9% | % Lysis [5, 6]: 0.8 ± 2.0% | % Lysis [5, 7]: 4.2 ± 1.2% | % Lysis [5, 8]: 10.0 ± 8.7% | % Lysis ([5]; 0.0140 mL/L 1 time per day, day 5): 10.0 ± 2.4% | % Lysis ([5]; 0.0140 mL/L 1 time per day, day 6): 9.2 ± 3.5% | % Lysis ([5]; 0.0140 mL/L 1 time per day, day 7): 20.0 ± 9.4% | % Lysis ([5]; 0.0140 mL/L 1 time per day, day 8): 6.7 ± 7.0% | % Lysis ([5]; 0.0140 mL/L 1 time per day, day 9): 21.7 ± 7.1% | % Lysis ([5]; 0.0140 mL/L 1 time per day, day 10): 9.2 ± 3.5% | percent lysis reached ([5]; 0.0140 mL/L, by day 7): 20% | % Lysis ([5]; 0.0175 mL/L 1 time per day for 2 d then every other, day 0): 0.8 ± 2.0% | % Lysis ([5]; 0.0175 mL/L 1 time per day for 2 d then every other, day 3): 31.7 ± 11.8% | % Lysis ([5]; 0.0175 mL/L 1 time per day for 2 d then every other, day 4): 22.2 ± 8.5% | % Lysis ([5]; 0.0175 mL/L 1 time per day for 2 d then every other, day 5): 19.2 ± 17.6% | % Lysis ([5]; 0.0175 mL/L 1 time per day for 2 d then every other, day 6): 25 ± 0.0% | percent lysis reached ([5]; 0.0175 mL/L, by day 3 after only being dosed twice): 30%

From US20160281050A1, “METHODS FOR TREATING A CULTURE OF HAEMATOCOCCUS PLUVIALIS FOR CONTAMINATION USING SALT AND HYDROGEN PEROXIDE” (HELIAE DEVELOPMENT LLC, priority 2015, published 2016)
